Experimental data taken from US9592272B2, “Treatment of osteoarthritis with incretin hormones or analogues thereof” (UNIVERSITE PIERRE ET MARIE CURIE (PARIS 6), priority 2012, dated 2017).

Assays:
[1] = test system: MMP-3, MMP-9 and MMP-13 expression in chondrocytes; test: Expression of MMP-3, MMP-9 and MMP-13 in primary chondrocytes in response to IL-1β (real-time quantitative RT-PCR); format: cell-based, murine; conditions: peptide 10 nM; IL-1β 0.1 or 1 ng/ml, 24 h; FIG. 1
Description: (§1) The murine chondrocytes were obtained after enzymatic digestion of femoral heads and knees of 4- to 6-day-old mice. The cells were amplified in a monolayer for 1 week (Gosset et al., 2008).
(§2) The cultures were deprived in a serum-free culture medium for 24 h before treatment.
(§3) The RNAs were extracted using the RNeasy Mini kit (Qiagen) and then reverse-transcribed using the Omniscript kit (Qiagen). The expression level of the genes of interest was quantified by real-time PCR (Light Cycler LC480), relative to the HPRT reference gene, using the following primers: […]

[2] = test system: MMP-3, MMP-9 and MMP-13 expression in osteoblasts; test: Expression of MMP-3, MMP-9 and MMP-13 in primary osteoblasts in response to IL-1β (real-time quantitative RT-PCR); format: cell-based, murine; conditions: peptide 10 nM, IL-1β 0.1 or 1 ng/ml, 24 h; for overexpression of the prodegradative enzymes MMP-3 and MMP-13 in the osteoblasts in response to an IL-1β treatment: FIGS. 2A, B and C
Description: The murine osteoblasts were obtained after enzymatic digestion of the skulls of 4- to 6-day-old mice. The cells were amplified for 3 weeks, in the presence of ascorbic acid and β-glycerophosphate. The osteoblasts at the end of culture formed a three-dimensional membrane (Sanchez et al., 2009).
as §2, §3

[3] = test system: prostaglandin E2 (PGE2) release by chondrocytes; test: Prostaglandin E2 release by chondrocytes in response to IL-1β (EIA on culture supernatants); format: cell-based, murine
Description: as §1, §2
The amount of PGE2 produced by the cells was measured by means of the prostaglandin E2 monoclonal EIA kit (Cayman) using the culture supernatants.

[4] = in vivo, iv; cited from earlier work
[5] = clinical trials (Krzeski et al., 2007); cited from earlier work

overexpression of the prodegradative enzymes MMP-3, MMP-9 and/or MMP-13 in the chondrocytes in response to an IL-1β treatment [1]	overexpression of the prodegradative enzymes MMP-3 and MMP-13 in the osteoblasts in response to an IL-1β treatment [2]	Molecule	overexpression of MMP-9 in the osteoblasts in response to an IL-1β treatment ([2]; FIG. 2D)	release of prostaglandin E2 (PGE2) by the chondrocytes in response to an IL-1β treatment ([3]; peptide 10 nM, IL-1β 1 ng/ml, 24 h, FIG. 3)	induction of PGE2 by peptide alone, chondrocytes ([3]; peptide alone, without IL-1β)	half-life time [4]	toxicity revealed during clinical trials [5]
inhibits	inhibits	GLP-1 (7-36) amide	inhibits	inhibits	does not induce	–	–
inhibits	inhibits	GLP-1 (7-37)	–	–	–	–	–
inhibits	inhibits	GIP (1-42)	–	–	–	approximately 2 minutes	–
–	–	COc1ccc(C(=O)Nc2ccc(S(=O)(=O)NC(CC#CCN3CCOCC3)C(=O)O)cc2)cc1 (centres unmarked) [PG-116800]	–	–	–	–	musculoskeletal toxicity
